This note sets out measurements from patent US8053581B2, “Trisubstituted thiazole compounds, preparations methods, pharmaceutical compositions and medicals uses thereof” (Institute of Pharmacology and Toxicology Academy of …, priority 2006, dated 2011).

Turning to `COc1ccc(-c2nc(N)sc2Cc2ccccc2)cc1` [Example 1, 5-benzyl-4-(4-methoxy-phenyl)-thiazol-2-ylamine], the melting point (in general, the temperature, or range, at which the solid turns liquid) lay in the range of 177 to 178 °C.
In the case of `Nc1nc(-c2ccc(O)cc2)c(Cc2ccccc2)s1` [Example 2, 5-benzyl-4-(4-hydroxy-phenyl)-thiazol-2-ylamine] it was 170 to 172 °C; in that of `COc1ccc(-c2nc(NC(=O)c3ccccc3)sc2Cc2ccccc2)cc1` [Example 3, N-[5-benzyl-4-(4-methoxy-phenyl)-thiazol-2-yl]-benzamide], 146 to 147 °C.
`COc1ccc(-c2nc(NC(=O)c3ccc(F)cc3)sc2Cc2ccccc2)cc1` [Example 4, N-[5-benzyl-4-(4-methoxy-phenyl)-thiazol-2-yl]-4-fluoro-benzamide] had a melting point of 164 to 165 °C.
The compound `COc1ccc(-c2nc(NC(=O)c3ccc(Cl)cc3)sc2Cc2ccccc2)cc1` [Example 5, N-[5-benzyl-4-(4-methoxy-phenyl)-thiazol-2-yl]-4-chloro-benzamide] displayed a melting point of 182 to 183 °C.
In the case of `COc1ccc(-c2nc(N)sc2Cc2ccc([N+](=O)[O-])cc2)cc1` [Example 6, 4-(4-methoxy-phenyl)-5-(4-nitro-benzyl)-thiazol-2-ylamine] it was 209 to 210 °C.
Regarding `O=C(Nc1nc(-c2ccc(O)cc2)c(Cc2ccccc2)s1)c1ccc(F)cc1` [Example 7, N-[5-benzyl-4-(4-hydroxy-phenyl)-thiazol-2-yl]-4-fluoro-benzamide], the melting point was in the range of 205 to 206 °C.
For `Nc1nc(-c2ccc(F)cc2)c(Cc2ccc([N+](=O)[O-])cc2)s1` [Example 9, 4-(4-fluoro-phenyl)-5-(4-nitro-benzyl)-thiazol-2-ylamine] the value was 217 to 218 °C.
In the case of `COc1ccc(-c2nc(NC(=O)c3ccc(F)cc3)sc2Cc2ccc([N+](=O)[O-])cc2)cc1` [Example 10, 4-fluoro-N-[4-(4-methoxy-phenyl)-5-(4-nitro-benzyl)-thiazol-2-yl]-benzamide] it was 188 to 189 °C; in that of `O=C(Nc1nc(-c2ccc(F)cc2)c(Cc2ccc([N+](=O)[O-])cc2)s1)c1ccc(F)cc1` [Example 11, 4-fluoro-N-[4-(4-fluoro-phenyl)-5-(4-nitro-benzyl)-thiazol-2-yl]-benzamide], 120 to 122 °C; in that of `COc1ccc(-c2nc(NC(=O)c3ccc(OC)c(OC)c3)sc2Cc2ccccc2)cc1` [Example 12, N-[5-benzyl-4-(4-methoxy-phenyl)-thiazol-2-yl]-3,4-dimethoxy-benzamide], 179 to 180 °C.
In the case of `COc1ccc(-c2nc(NC(=O)c3ccc(C#N)cc3)sc2Cc2ccccc2)cc1` [Example 13, N-[5-benzyl-4-(4-methoxy-phenyl)-thiazol-2-yl]-4-cyano-benzamide] it was 194 to 196 °C; in that of `COc1ccc(-c2nc(NC(=O)c3ccc(C#N)cc3)sc2Cc2ccc([N+](=O)[O-])cc2)cc1` [Example 14, 4-cyano-N-[4-(4-methoxy-phenyl)-5-(4-nitro-benzyl)-thiazol-2-yl]-benzamide], 190 to 192 °C.
As to `N#Cc1ccc(C(=O)Nc2nc(-c3ccc(F)cc3)c(Cc3ccc([N+](=O)[O-])cc3)s2)cc1` [Example 15, 4-cyano-N-[4-(4-fluoro-phenyl)-5-(4-nitro-benzyl)-thiazol-2-yl]-benzamide], the melting point was 244 to 245 °C.
As to `COc1ccc(-c2nc(NC(=O)c3cc(F)cc(F)c3)sc2Cc2ccccc2)cc1` [Example 16, N-[5-benzyl-4-(4-methoxy-phenyl)-thiazol-2-yl]-3,5-difluoro-benzamide], the melting point was 154 to 155 °C.
On to `COc1ccc(-c2nc(NC(=O)c3cc(F)cc(F)c3)sc2Cc2ccc([N+](=O)[O-])cc2)cc1` [Example 17, 3,5-difluoro-N-[4-(4-methoxy-phenyl)-5-(4-nitro-benzyl)-thiazol-2-yl]-benzamide], for which the melting point was in the range of 189 to 190 °C.
For `O=C(Nc1nc(-c2ccc(F)cc2)c(Cc2ccc([N+](=O)[O-])cc2)s1)c1cc(F)cc(F)c1` [Example 18, 3,5-difluoro-N-[4-(4-fluoro-phenyl)-5-(4-nitro-benzyl)-thiazol-2-yl]-benzamide] the value was 216 to 218 °C; for `COc1ccc(C(=O)Nc2nc(-c3ccc(F)cc3)c(Cc3ccc([N+](=O)[O-])cc3)s2)cc1OC` [Example 20, N-[4-(4-fluoro-phenyl)-5-(4-nitro-benzyl)-thiazol-2-yl]-3,4-dimethoxy-benzamide], 128 to 129 °C; for `COc1ccc(-c2nc(NC(=O)c3cc(F)cc(F)c3)sc2Cc2ccc(F)cc2)cc1` [Example 22, 3,5-difluoro-N-[5-(4-fluoro-benzyl)-4-(4-methoxy-phenyl)-thiazol-2-yl]-benzamide], 175 to 176 °C.
In the case of `COc1ccc(-c2nc(NC(=O)c3ccc(F)cc3)sc2Cc2ccc(F)cc2)cc1` [Example 23, 4-fluoro-N-[5-(4-fluoro-benzyl)-4-(4-methoxy-phenyl)-thiazol-2-yl]-benzamide] it was 184 to 185 °C.
`COc1ccc(-c2nc(N(C(=O)c3ccc(OC)c(OC)c3)C(=O)c3ccc(OC)c(OC)c3)sc2Cc2ccc(F)cc2)cc1` [Example 24] yielded a melting point of 136 to 137 °C.
In the case of `COc1ccc(-c2nc(NC(=O)c3ccc(C#N)cc3)sc2Cc2ccc(F)cc2)cc1` [Example 25, 4-cyano-N-[5-(4-fluoro-benzyl)-4-(4-methoxy-phenyl)-thiazol-2-yl]-benzamide] it was 191 to 192 °C; in that of `Nc1nc(-c2ccccc2)c(Cc2ccc([N+](=O)[O-])cc2)s1` [Example 26, 5-(4-nitro-benzyl)-4-phenyl-thiazol-2-ylamine], 215 to 216 °C; in that of `COc1ccc(C(=O)Nc2nc(-c3ccc(OC)cc3)c(Cc3ccccc3)s2)cc1` [Example 27, N-[5-benzyl-4-(4-methoxy-phenyl)-thiazol-2-yl]-4-methoxy-benzamide], 58 to 59 °C.
For `COc1ccc(-c2nc(NC(=O)c3ccc(OC)c(OC)c3)sc2Cc2ccc([N+](=O)[O-])cc2)cc1` [Example 28, 3,4-dimethoxy-N-[4-(4-methoxy-phenyl)-5-(4-nitro-benzyl)-thiazol-2-yl]-benzamide] the value was 106 to 108 °C; for `COc1ccc(C(=O)Nc2nc(-c3ccccc3)c(Cc3ccc([N+](=O)[O-])cc3)s2)cc1OC` [Example 29, 3,4-dimethoxy-N-[5-(4-nitro-benzyl)-4-phenyl-thiazol-2-yl]-benzamide], 105 to 106 °C.
Compound `COc1ccc(-c2nc(NC(=O)c3ccc(OC)c(OC)c3)sc2Cc2ccc(F)cc2)cc1` [Example 30, N-[5-(4-fluoro-benzyl)-4-(4-methoxy-phenyl)-thiazol-2-yl]-3,4-dimethoxy-benzamide] came in with a melting point of 140 to 142 °C.
In turn, `COc1ccc(-c2nc(NC(=O)c3ccc(OC)cc3OC)sc2Cc2ccccc2)cc1` [Example 35, N-[5-benzyl-4-(4-methoxy-phenyl)-thiazol-2-yl]-2,4-dimethoxy-benzamide] returned a melting point of 196 to 197 °C.
In the case of `COc1ccc(-c2nc(NC(=O)c3ccccc3OC)sc2Cc2ccccc2)cc1` [Example 36, N-[5-benzyl-4-(4-methoxy-phenyl)-thiazol-2-yl]-2-methoxy-benzamide] it was 147 to 148 °C.
Compound `COc1ccc(-c2nc(NC(=O)c3cc(OC)c(OC)c(OC)c3)sc2Cc2ccccc2)cc1` [Example 37, N-[5-benzyl-4-(4-methoxy-phenyl)-thiazol-2-yl]-3,4,5-trimethoxy-benzamide] displayed a melting point of 157 to 158 °C.
For `O=C(Nc1nc(-c2ccc(O)cc2)c(Cc2ccccc2)s1)c1ccccc1O` [Example 39, N-[5-benzyl-4-(4-hydroxy-phenyl)-thiazol-2-yl]-2-hydroxy-benzamide] the value was 279 to 280 °C; for `COc1ccc(-c2nc(NC(=O)c3cccc(OC)c3)sc2Cc2ccccc2)cc1` [Example 42, N-[5-benzyl-4-(4-methoxy-phenyl)-thiazol-2-yl]-3-methoxy-benzamide], 71 to 72 °C; for `COc1ccc(-c2nc(NC(=O)c3cc(OC)cc(OC)c3)sc2Cc2ccccc2)cc1` [Example 43, N-[5-benzyl-4-(4-methoxy-phenyl)-thiazol-2-yl]-3,5-dimethoxy-benzamide], 152 to 153 °C.
In the case of `O=C(Nc1nc(-c2ccc(O)cc2)c(Cc2ccccc2)s1)c1cccc(O)c1` [Example 44, N-[5-benzyl-4-(4-hydroxy-phenyl)-thiazol-2-yl]-3-hydroxy-benzamide] it was 233 to 234 °C; in that of `O=C(Nc1nc(-c2ccc(O)cc2)c(Cc2ccccc2)s1)c1cc(O)cc(O)c1` [Example 45, N-[5-benzyl-4-(4-hydroxy-phenyl)-thiazol-2-yl]-3,5-dihydroxy-benzamide], 262 to 263 °C; in that of `O=C(Nc1nc(-c2ccc(O)cc2)c(Cc2ccccc2)s1)c1ccc(O)cc1` [Example 46, N-[5-benzyl-4-(4-hydroxy-phenyl)-thiazol-2-yl]-4-hydroxy-benzamide], 254 to 255 °C.
For the compound `COc1ccc(-c2nc(NC(=O)c3ccc(OC)c(OC)c3)sc2CC2CCCCC2)cc1` [Example 48, N-[5-cyclohexylmethyl-4-(4-methoxy-phenyl)-thiazol-2-yl]-3,4-dimethoxy-benzamide], the melting point lay within 171 to 172 °C.
For `COc1ccc(-c2nc(NC(=O)c3cc(OC)c(OC)c(OC)c3)sc2CC2CCCCC2)cc1` [Example 50] the value was 193 to 194 °C.
Regarding `COc1ccc(-c2nc(N)sc2C)cc1` [Example 52, 4-(4-methoxy-phenyl)-5-methyl-thiazol-2-ylamine], the melting point lay within 139 to 140 °C.
In turn, `COc1ccc(-c2nc(NC(=O)c3cc(OC)c(OC)c(OC)c3)sc2C)cc1` [Example 53, 3,4,5-trimethoxy-N-[4-(4-methoxy-phenyl)-5-methyl-thiazol-2-yl]-benzamide] yielded a melting point of 105 to 106 °C.
`COc1ccc(-c2nc(NC(=O)c3ccc(OC)c(OC)c3)sc2C)cc1` [Example 54, 3,4-dimethoxy-N-[4-(4-methoxy-phenyl)-5-methyl-thiazol-2-yl]-benzamide] had a melting point of 174 to 175 °C.
